Here are results for 2 compounds from BindingDB's records for doi:10.1016/j.bmc.2014.11.013 (University Medical Center Groningen, 2014).

Broadly, the IC50 is the concentration needed to halve the response being measured.

The assay is described as follows: Inhibition of human recombinant ADAM17 using Mca-PLAQAV-Dpa-RSSSR-NH2.

For the compound `CC(C)C[C@H](CC(=O)NO)C(=O)N[C@@H](Cc1ccccc1)C(=O)N[C@@H](CCCCNC(=O)c1ccc(F)cc1)C(N)=O`, the IC50 is 25 nM.
As to `CC(C)C[C@H](CC(=O)NO)C(=O)N[C@@H](Cc1ccccc1)C(=O)N[C@@H](CCCCN)C(N)=O`, the IC50 came out at 5.7 nM.
